Paper PMC4965013, “Open Source Drug Discovery with the Malaria Box Compound Collection for Neglected Diseases and Beyond” (PLoS Pathogens, 2016)
Values joined by “and” are separate entries in the source; they are usually repeats but may differ in a detail not shown here. Equal entries are not always repeated.

Key:
[1] = tested on: Toxoplasma gondii TS-4; conditions: ref [46]; cited from earlier work
[2] = tested on: Leishmania infantum MHOM/MA/BE/67; conditions: Run 1 and Run 2; ref [88]; read-out: L. infantum IC50 positive control; cited from earlier work
[3] = tested on: Neospora caninum Nc-1 tachyzoites; experiment: Neospora caninum Nc-Betagal proliferation; format: cell-based
[4] = tested on: P. falciparum 3D7 trophozoites; experiment: Metabolomic fingerprint profiling LC-MS; format: cell-based, Plasmodium falciparum; parameters: UDP-D-glucose / ADP-D-glucose: unit not given here
[5] = tested on: P. falciparum; experiment: EC50 listed in S2 Table Metabolomics (used to set the concentration tested); format: cell-based; conditions: Plasmodium falciparum; EC50 used for Factor_XEC50 in metabolomics; read-out: EC50_nM
[6] = tested on: Schistosoma mansoni schistosomula (somules); experiment: S. mansoni somules phenotypic screen Caffrey; conditions: 2.5 µM, 48 h
[7] = tested on: Schistosoma mansoni adult males; experiment: S. mansoni adult phenotypic and motility screen Caffrey
[8] = tested on: Trypanosoma brucei rhodesiense STIB 900; conditions: Run 1 and Run 2; ref [88]; read-out: T. rhodesiense IC50 positive control; cited from earlier work
[9] = tested on: T. b. brucei Squib 427; conditions: Run 1 and Run 2; ref [88]; read-out: T. brucei brucei IC50 positive control; cited from earlier work
[10] = biological target: T1, PfA-M1 (Plasmodium falciparum, UniProt O96935); experiment: rPfA-M1 aminopeptidase activity (Florent); format: biochemical, P. falciparum; conditions: for effect on rPfA-M1 in words: 100µM
T1 construct: encoding residues 192-1085 of native PfA-M1; hexahistidine (N); TEV cleavage site (ENLYFQS) (N); made in house; host or cells: Escherichia coli BL21 (DE3) Rosetta 2

[11] = biological target: T2, PfA-M17 (Plasmodium falciparum, UniProt Q8IL11); experiment: rPfA-M17 aminopeptidase activity (Florent); format: biochemical, P. falciparum; conditions: for effect on rPfA-M17 in words: 100µM
T2 construct: residues 84-605 of native Plasmodium falciparum leucyl aminopeptidase PfA-M17 (PlasmoDB PF3D7_1446200); hexahistidine (N); TEV cleavage site (N); made in house; host or cells: Escherichia coli BL21 (DE3) Rosetta 2

[12] = tested on: T. cruzi Tulahuen; conditions: ref [84]; read-out: Trypanosoma cruzi Tulahuen intracellular amastigotes in MRC5 cell line EC50; cited from earlier work
[13] = tested on: Atg8-Atg3; parameters: method as in ref [38] (a number printed in a supplementary file, which may have a reference list of its own: not looked up in the article's list); conditions: ref [38]; cited from earlier work
[14] = metabolite level change after treatment

T1 sequence (O96935 192-1085): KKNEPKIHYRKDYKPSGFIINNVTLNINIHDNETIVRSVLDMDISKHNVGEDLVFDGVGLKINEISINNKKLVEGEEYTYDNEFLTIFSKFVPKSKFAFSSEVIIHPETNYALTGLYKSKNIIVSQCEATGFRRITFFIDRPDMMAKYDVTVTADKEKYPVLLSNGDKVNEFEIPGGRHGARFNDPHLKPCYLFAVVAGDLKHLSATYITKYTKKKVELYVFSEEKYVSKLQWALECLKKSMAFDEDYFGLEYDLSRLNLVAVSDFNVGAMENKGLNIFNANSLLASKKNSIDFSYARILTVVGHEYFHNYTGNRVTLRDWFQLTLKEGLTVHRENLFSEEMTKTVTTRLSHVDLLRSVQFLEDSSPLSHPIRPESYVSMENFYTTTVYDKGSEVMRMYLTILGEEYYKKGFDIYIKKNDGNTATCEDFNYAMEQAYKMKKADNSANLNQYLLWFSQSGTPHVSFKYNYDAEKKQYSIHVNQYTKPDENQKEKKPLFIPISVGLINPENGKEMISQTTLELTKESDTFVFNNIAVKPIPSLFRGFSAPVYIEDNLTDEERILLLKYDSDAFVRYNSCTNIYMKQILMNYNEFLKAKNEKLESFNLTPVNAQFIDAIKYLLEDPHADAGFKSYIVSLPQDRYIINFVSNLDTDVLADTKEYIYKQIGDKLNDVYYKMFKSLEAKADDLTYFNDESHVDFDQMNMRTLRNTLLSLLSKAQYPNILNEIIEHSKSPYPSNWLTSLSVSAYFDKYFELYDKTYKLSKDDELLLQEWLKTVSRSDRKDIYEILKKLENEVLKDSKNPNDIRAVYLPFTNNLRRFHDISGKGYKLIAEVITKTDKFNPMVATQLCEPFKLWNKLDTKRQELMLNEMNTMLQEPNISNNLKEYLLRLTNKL
T2 sequence (Q8IL11 84-605): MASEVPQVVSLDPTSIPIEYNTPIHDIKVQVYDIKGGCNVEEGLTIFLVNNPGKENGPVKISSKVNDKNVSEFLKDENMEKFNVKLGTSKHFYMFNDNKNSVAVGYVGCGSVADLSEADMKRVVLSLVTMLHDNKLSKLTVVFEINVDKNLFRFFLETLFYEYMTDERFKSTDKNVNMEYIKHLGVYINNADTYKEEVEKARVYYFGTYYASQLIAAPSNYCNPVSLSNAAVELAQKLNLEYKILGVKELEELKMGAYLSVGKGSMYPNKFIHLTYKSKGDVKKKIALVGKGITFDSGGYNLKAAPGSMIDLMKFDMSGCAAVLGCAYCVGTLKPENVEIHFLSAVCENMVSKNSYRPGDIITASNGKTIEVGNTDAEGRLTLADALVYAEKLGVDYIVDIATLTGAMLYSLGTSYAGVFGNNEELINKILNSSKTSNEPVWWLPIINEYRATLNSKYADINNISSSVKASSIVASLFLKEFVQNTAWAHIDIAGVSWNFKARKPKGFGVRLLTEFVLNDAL

CCOc1ccccc1NC(=O)CN1CCN(C(=O)c2ccco2)CC1 [MMV007791]
non-toxic compounds active against T. gondii [1]: active

CCCCCCCCCCCCCCCCOP(=O)([O-])OCC[N+](C)(C)C [Miltefosine, reference compound]
IC50 [2]: 7100 nM and 9000 nM

CN(C)c1ccc(C=Cc2nc(=O)c3ccccc3o2)cc1 [MMV006309]
non-toxic N. caninum actives [3]: non-toxic N. caninum actives | Acetyllysine ([4]; S2 Table Metabolomics, metabolite Acetyllysine): -0.06229 | N-acetyl-L-ornithine ([4]; S2 Table Metabolomics, metabolite N-acetyl-L-ornithine): 0.06709 | N-carbamoyl-L-aspartate ([4]; S2 Table Metabolomics, metabolite N-carbamoyl-L-aspartate): 2.985 | NADPH ([4]; S2 Table Metabolomics, metabolite NADPH): -0.04695 | dAMP ([4]; S2 Table Metabolomics, metabolite dAMP): -0.4457 | dCMP ([4]; S2 Table Metabolomics, metabolite dCMP): 0.07949 | dTDP ([4]; S2 Table Metabolomics, metabolite dTDP): -0.6452 | dTMP ([4]; S2 Table Metabolomics, metabolite dTMP): -0.3602 | dTTP ([4]; S2 Table Metabolomics, metabolite dTTP): -0.2468 | dihydroorotate ([4]; S2 Table Metabolomics, metabolite dihydroorotate): 3.691 | orotate ([4]; S2 Table Metabolomics, metabolite orotate): -0.6105 | DLH ([4]; S2 Table Metabolomics, peptide DLH): -0.3184 | DLS/SDL/SID ([4]; S2 Table Metabolomics, peptide DLS/SDL/SID): -0.2456 | PD ([4]; S2 Table Metabolomics, peptide PD): 0.4341 | PEE ([4]; S2 Table Metabolomics, peptide PEE): -0.1161 | PVNF ([4]; S2 Table Metabolomics, peptide PVNF): -0.4902 | 3-phosphoglycerate ([4]; metabolite 3-phosphoglycerate, S2 Table Metabolomics): -0.1315 | ADP-D-glucose ([4]; metabolite ADP-D-glucose, S2 Table Metabolomics): 0.1572 | ATP ([4]; metabolite ATP, S2 Table Metabolomics): 0.2918 | CDP ([4]; metabolite CDP, S2 Table Metabolomics, change in metabolite level after compound treatment): -0.5525 | D-sedoheptulose-1/7-phosphate ([4]; metabolite D-sedoheptulose-1/7-phosphate, S2 Table Metabolomics, change in metabolite level after compound treatment): 0.4312 | FAD ([4]; metabolite FAD, S2 Table Metabolomics): 0.6491 | GMP ([4]; metabolite GMP, S2 Table Metabolomics, change in metabolite level after compound treatment): 2.281 | NAD+ ([4]; metabolite NAD+, S2 Table Metabolomics): 0.2407 | NADP+ ([4]; metabolite NADP+, S2 Table Metabolomics): 0.05923 | Octoluse Bisphosphate ([4]; metabolite Octoluse Bisphosphate, S2 Table Metabolomics, change in metabolite level after compound treatment): 0.03854 | Pyroglutamic acid ([4]; metabolite Pyroglutamic acid, S2 Table Metabolomics): -0.251 | UDP-D-glucose ([4]; metabolite UDP-D-glucose, S2 Table Metabolomics): 0.2158 | UDP-D-glucuronate ([4]; metabolite UDP-D-glucuronate, S2 Table Metabolomics): 0.1905 | UDP-N-acetyl-glucosamine ([4]; metabolite UDP-N-acetyl-glucosamine, S2 Table Metabolomics): 0.2147 | UDP ([4]; metabolite UDP, S2 Table Metabolomics, change in metabolite level after compound treatment): -0.5733 | UMP ([4]; metabolite UMP, S2 Table Metabolomics, change in metabolite level after compound treatment): -0.8586 | UTP ([4]; metabolite UTP, S2 Table Metabolomics, change in metabolite level after compound treatment): -0.4965 | a-ketoglutarate ([4]; metabolite a-ketoglutarate, S2 Table Metabolomics): -0.2334 | citrate/isocitrate ([4]; metabolite citrate/isocitrate, S2 Table Metabolomics, change in metabolite level after compound treatment): -0.148 | cytidine ([4]; metabolite cytidine, S2 Table Metabolomics): 0.1715 | dATP ([4]; metabolite dATP, S2 Table Metabolomics): 0.5165 | dGMP/AMP ([4]; metabolite dGMP/AMP, S2 Table Metabolomics, change in metabolite level after compound treatment): -0.4086 | fumarate ([4]; metabolite fumarate, S2 Table Metabolomics, change in metabolite level after compound treatment): 0.4652 | glucose-1/6-phosphate ([4]; metabolite glucose-1/6-phosphate, S2 Table Metabolomics, change in metabolite level after compound treatment): 0.457 | glycerate ([4]; metabolite glycerate, S2 Table Metabolomics, change in metabolite level after compound treatment): 0.3869 | guanine ([4]; metabolite guanine, S2 Table Metabolomics, change in metabolite level after compound treatment): 0.4747 | guanosine ([4]; metabolite guanosine, S2 Table Metabolomics, change in metabolite level after compound treatment): 0.5548 | hypoxanthine ([4]; metabolite hypoxanthine, S2 Table Metabolomics): -0.07215 | indole ([4]; metabolite indole, S2 Table Metabolomics): -0.02242 | inosine ([4]; metabolite inosine, S2 Table Metabolomics, change in metabolite level after compound treatment): 0.08258 | 2_3-Diphosphoglyceric acid [4, 14]: 0.3655 | 4-phosphopantothenate [4, 14]: -0.02209 | 6-phospho-D-gluconate [4, 14]: 0.4028 | FMN [4, 14]: 0.2378 | IMP [4, 14]: -0.05126 | Pyrophosphate [4, 14]: 0.2614 | Sedoheptoluse bisphosphate [4, 14]: 0.2668 | cyclic-AMP [4, 14]: 0.09044 | glutathione disulfide [4, 14]: 0.5032 | lactate [4, 14]: 0.1016 | myo-inositol [4, 14]: 0.2436 | nicotinate ([4]; metabolite nicotinate, S2 Table Metabolomics): 0.1263 | ornithine ([4]; metabolite ornithine, S2 Table Metabolomics): -0.005843 | phosphoenolpyruvate ([4]; metabolite phosphoenolpyruvate, S2 Table Metabolomics): -0.2041 | pyruvate ([4]; metabolite pyruvate, S2 Table Metabolomics, change in metabolite level after compound treatment): -0.06331 | ribose-phosphate ([4]; metabolite ribose-phosphate, S2 Table Metabolomics): -0.02548 | sarcosine/alanine ([4]; metabolite sarcosine/alanine, S2 Table Metabolomics, change in metabolite level after compound treatment): 0.5971 | sn-glycerol-3-phosphate ([4]; metabolite sn-glycerol-3-phosphate, S2 Table Metabolomics): -0.04439 | succinate/methylmalonic acid ([4]; metabolite succinate/methylmalonic acid, S2 Table Metabolomics, change in metabolite level after compound treatment): 0.1372 | uridine ([4]; metabolite uridine, S2 Table Metabolomics, change in metabolite level after compound treatment): -0.2519 | xanthosine ([4]; metabolite xanthosine, S2 Table Metabolomics, change in metabolite level after compound treatment): 0.3479 | EC50 [5]: 51.5 nM

O=C(Nc1ccc([N+](=O)[O-])cc1Cl)c1cc(Cl)ccc1O [niclosamide]
somule severity score [6]: 4 | S. mansoni adult males 48hr motility assay ([7]; 48 h, 5µM): zero | S. mansoni adult males visual tox scale, 0 = none, 4=most damaged ([7]; 48hr at 5 µM): 4

Cc1ccc(NC(=O)Nc2cccc(Cl)c2)cc1F [MMV000911]
non-toxic N. caninum actives [3]: non-toxic N. caninum actives

Cc1ccc(C(=O)Nc2ccc(S(=O)(=O)O)c3cc(S(=O)(=O)O)cc(S(=O)(=O)O)c23)cc1NC(=O)c1cccc(NC(=O)Nc2cccc(C(=O)Nc3cc(C(=O)Nc4ccc(S(=O)(=O)O)c5cc(S(=O)(=O)O)cc(S(=O)(=O)O)c45)ccc3C)c2)c1 [Suramin, reference compound]
IC50 [8]: 70 nM and 50 nM | IC50 [9]: 60 nM and 50 nM

CCCc1c(C)nc2ccc(Br)cc2c1O [MMV666095]
non-toxic compounds active against T. gondii [1]: active

COc1ccc(C2c3ccc4ccccc4c3Oc3ncn(CCCn4ccnc4)c(=N)c32)cc1OC (centres unmarked) [MMV667490]
effect on rPfA-M1 in words [10]: particularly effective | effect on rPfA-M17 in words [11]: only moderately inhibiting

COc1ccc(Nc2cc(C)nc(NCc3ccccc3)n2)cc1 [MMV006825]
effect on rPfA-M1 in words [10]: particularly effective | effect on rPfA-M17 in words [11]: only moderately inhibiting

CCOc1cccc2sc(N(Cc3cccnc3)C(=O)C3CCCCC3)nc12 [MMV001230]
EC50 [12]: 156 nM

Clc1ccc2c(N3CCCC3)ccnc2c1 [MMV007363]
non-toxic compounds active against T. gondii [1]: active

CCCCN(CCCC)S(=O)(=O)c1ccc(NC(=O)c2ccco2)cc1 [MMV007881]
non-toxic compounds active against T. gondii [1]: active

O=C(Nc1nc(-c2ccccn2)cs1)c1ccccc1Br [MMV665909]
PPI inhibitors of Atg8-Atg3 interaction [13]: PPI inhibitors

CCOc1ccc2cc(-c3nn(CC4CCN(C)CC4)c4ncnc(N)c34)ccc2c1 [BKI-1294, reference compound]
N. caninum proliferation, positive control ([3]; 1µM): complete block of proliferation

CC(C)C[C@H](NC(=O)[C@@H](O)[C@H](N)Cc1ccccc1)C(=O)O [bestatin, reference compound]
inhibition at 100 µM [10]: 57% | inhibition at 100 µM [11]: 100%

O=C(Nc1ccc(N2CCN(Cc3ccccc3)CC2)cc1)c1cccs1 [MMV019670]
non-toxic N. caninum actives [3]: non-toxic N. caninum actives

CN(C)CCNc1cc(-c2ccccc2)nc2ccccc12 [MMV006704]
non-toxic compounds active against T. gondii [1]: active

CN(C)c1ccc(-c2nc3cc(N)ccc3[nH]2)cc1 [MMV666102]
effect on rPfA-M1 in words [10]: particularly effective
